The values below come from patent publication US5244662A, “Medicinal extract from a mixture of Phellodendron and defatted seed of Croton, and method for it's manufacture” (Korea Green Cross Corporation, priority 1990, dated 1993).

The subject of one data set is granuloma cells. The experiment in a line: Action on primary granuloma cells (progesterone production). In kind it is cell-based, rats. The procedure: Current antitumour drugs affect normal cellular growth as well as growth of tumour cells, whereby very careful therapeutic application of the agents has been required. […] The action of the present extract on spleen cells and granuloma cells was investigated to evaluate the action on normal cellular growth.
The spleen cells originated from BALB/C mice and were cultured in RPMI media under the condition of 7% CO2 /37° C. The granuloma cells originated from the ovum of young rats aged 25 days and were cultured in DMEM/F 12(1:1) media containing fetal bovine serum under the same conditions.

The test system of the next data set is PO-GRSI cells. The experiment in a line: Steroid hormone synthesis of PO-GRSI. In kind it is cell-based. The procedure:
Granuloma cells play an important role in producing ovum in mammalian animals, and particularly secrete progesterone to enhance the proliferation of ovum. Granuloma cells metastasized artificially with carcinogenic genes (SV-40 and Ha-Ras) have the ability to synthesize both progesterone, the cell's original function and protein, and the original function of the carcinogenic gene. For the test, PO-GRSI and PA-GS6 were cultured in DMEM/F12(1:1) haematologic culture media containing insulin(2 μg/ml), transferin (5 μg/ml), hydrocortisone(40 μg/ml) and fibronectin(5 μg/ml), and the progesterone was analyzed by radioimmunoassay ([…]).
The antitumour activities of the extract obtained in Example 1 against Granuloma cells were determined also by evaluating its action on the progesterone and 20 alpha --OH-- progesterone synthesis of the captioned two kinds of cells. In the meantime, the action of FORSKOLIN to enhance the two steroid hormone syntheses were also checked.

For data set [1] the following is noted: treatment of osteoporosis; cited from earlier work.
The next data set deals with L1210 (ATCC CCL 219). Details: species or system BDFI mice. The note with it: mouse, in vivo.
The next data set relates to P388 (ATCC CCL 46). Also noted: species or system BDFI mice. The settings on record: mouse, in vivo.
A further data set concerns osteoporosis. Kind of data set: Clinical trial in osteoporosis. Format: in vivo, patient. An excerpt:
(G-1) Clinical trial on a severe case whose vertebral density was just 0.332 g/cm^2 (29% of normal value), that is, corresponding to the 10th year from each menopause and the inability to walk over ten minutes. […]

With `C=C[C@@]1(C)CC(=O)[C@]2(O)[C@@]3(C)[C@@H](O)CCC(C)(C)[C@@H]3[C@H](O)[C@H](OC(C)=O)[C@@]2(C)O1` [forskolin], the “progesterone secretion versus control” value with granuloma cells (forskolin) is “eight times that of the control”. For the same compound, the “progesterone” value in the data set on granuloma cells (forskolin 10^-4 M, control 109.6) was found to be 829.0 ng/mL. In addition, in the data set on PO-GRSI cells, the “increase of 20 alpha-OH-progesterone synthesis over the control” value came out at 100 times and the “increase of progesterone synthesis over the control” value came to 60 times.

Take `[F-].[Na+]` [Sodium fluoride]: in data set [1], the “adverse effects of nausea and gastric irritation” value was “About 30%”; the “rheumatic pain in leg joints” value was 10%.

On to `CO[C@@]12[C@H](COC(N)=O)C3=C(C(=O)C(C)=C(N)C3=O)N1C[C@@H]1N[C@@H]12` [mitomycin C], for which the “survival rate (%)” value with L1210 (ATCC CCL 219) was 135%; in the data set with P388 (ATCC CCL 46), 130.4%. Also, the “survival time” value in the data set with L1210 (ATCC CCL 219) worked out at 21 days; in the data set on P388 (ATCC CCL 46), 21.6 days.

In the data set on osteoporosis, `CC#C[C@]1(O)CC[C@H]2[C@@H]3CCc4cc(O)ccc4[C@H]3CC[C@@]21C` [Estrogen] gave a vertebral density maintained of 0.341 g/cm^2.
